According to PubChem BioAssay (NCI):
“And” between values parts separate entries of the source, which are not always exact repeats. Equal entries are not always repeated.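 Five compound concentrations were applied to cells in 96-well plates for 48 hours; endpoints were derived by simple linear interpolation of the resulting dose-response curve. GI50 marks 50% less growth. TGI: total growth inhibition.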

What was measured:
Assay in all cases: NCI anticancer screen, dose series, 48 h
[1] = test system: MDA-N
[2] = test system: PC-3 prostate
[3] = test system: M19-MEL melanoma
[4] = test system: DLD-1 colon
[5] = test system: SNB-78 CNS
[6] = test system: DMS 114 small cell lung
[7] = test system: KM20L2 colon

With `COc1c2c(c3c(c1CCC(=O)O)OC(C)(C)C=C3)OC(C)(C)C=C2` the TGI [1] was > 100 µM and the TGI [2] was > 100 µM.
For `O=C(Cn1ccc(=O)[nH]c1=O)Nc1ccc(C(=O)O)c(O)c1`, the TGI [1] was > 100 µM and the TGI [2] was > 100 µM.
With `Cc1ccc(/C=C2\CN(C(=O)OC(C)(C)C)C/C(=C\c3ccc(C)cc3)C2=O)cc1` the GI50 [2] was 0.452 µM and the TGI [2] was > 100 µM.
`CC(=O)NNc1nc(C)c(C(=O)NNC(=O)C(=O)Nc2ccccc2C#N)s1` was tested, and the TGI [3] was > 100 µM, the TGI [4] was > 100 µM and the TGI [5] was > 100 µM. The TGI [6] was > 100 µM and the TGI [7] was > 100 µM.
In the case of `CCCCCn1c(=N)n(CC(O)COc2cccc(C)c2)c2ccccc21` (stereo not given), the GI50 [2] is reported as 4 µM and the TGI [2] is reported as 16.3 µM.
In the case of `CNS(=O)(=O)NN(C)S(=O)(=O)c1ccc(F)cc1`, the TGI [4] is reported as > 100 µM, the TGI [6] is reported as > 100 µM and the TGI [7] is reported as > 100 µM.
In the case of `C[C@@H](C(=O)Nc1ccc(Cl)cc1)C1CCC(c2ccnc3ccc(F)cc23)CC1` (stereo not given in full), the GI50 [2] is reported as 3.43 µM and the TGI [2] is reported as > 100 µM.
For `Cc1cc(N(CCC#N)S(=O)(=O)c2ccccc2)ccc1/C=C1N=C(/C=C/c2ccccc2)OC\1=O`, the TGI [4] was > 100 µM, the TGI [5] was > 100 µM and the TGI [6] was > 100 µM. The TGI [7] was > 100 µM.
For `Cc1[c-]onc1C.Cc1[c-]onc1C.[Ag].[Ag].[NH-]S(=O)(=O)c1ccc(N=Nc2cc(N=Nc3ccc(S([NH-])(=O)=O)cc3)c3c(NC(=O)C(Cl)Cl)cccc3c2OC(=O)C(Cl)Cl)cc1`, the GI50 [2] was 6.82 µM and the TGI [2] was > 50 µM.
With `Cc1cccc(NC(=O)CC(=O)N2N=C(N(CCC#N)c3ccc(Cl)cc3)CC2c2ccccc2)c1` (stereo not given) the TGI [3] was > 100 µM, the TGI [4] was > 100 µM and the TGI [5] was > 100 µM. For the same molecule, the TGI [6] was > 100 µM.
For `COc1ccc2c(c1)C(O)(C(F)(F)F)c1cc(C(=O)C(F)(F)F)c3ccccc3c1N2` (stereo not given), the TGI [3] was 28.2 µM, the TGI [4] was 22.4 µM and the TGI [6] was 22.1 µM. It also gave a TGI [7] of 13.7 µM.
With `CCOC(=O)C1=C(C)N(Cc2ccccc2)C(C)=C(C(=O)OCC)C1c1ccccc1O` the TGI [3] was 75.7 µM, the TGI [4] was > 100 µM and the TGI [6] was 43.8 µM. The TGI [7] was > 100 µM.
With `C[N+](C)(C)CC(=O)N/N=C(/Cc1nc2c3c(ccc2[nH]c1=O)C(=O)c1ccccc1C3=O)C(=O)Nc1ccc(Cl)c(Cl)c1` the TGI [3] was > 100 µM, the TGI [4] was > 100 µM and the TGI [6] was > 100 µM. The TGI [7] was > 100 µM.
`C=CCC1([C@H](C)[C@@H](OC(C)=O)c2cc(OC)c(OC)c(OC)c2)C[C@@H](OC)CCC1=O` (stereo not given in full) was tested, and the TGI [3] was 91.3 µM, the TGI [4] was 37.5 µM and the TGI [6] was 44.4 µM. For the same molecule, the TGI [7] was 24.6 µM.
`Cc1sc(C(=O)Nc2cc(C(=O)NCCCN(C)C)n(C)c2)cc1NC(=O)CCCN1C(=O)c2cccc3cccc(c23)C1=O` was tested, and the GI50 [2] was > 100 µM and the TGI [2] was > 100 µM.
Molecule `Cc1ccc2c(ccc3c[n+]4c5ccccc5ccc4n32)c1` has a GI50 [2] of 0.946 µM and a TGI [2] of 10.4 µM.
For `COc1cc(Cl)cc(-c2nn(C(=O)NCCN3CCOCC3)cc2-c2ccncc2)c1`, the GI50 [2] was 4.24 µM and the TGI [2] was > 100 µM.
For `CC(C)(C)C#CC1=C(Br)C(=O)OC1`, the GI50 [2] was 2.39 µM and the TGI [2] was 11.2 µM.
With `CNC(=O)c1cncc(/C=C/c2ccccc2C)c1` the GI50 [2] was > 25 µM and the TGI [2] was > 25 µM.
For `O=CNc1c(Cl)cc2c(c1Cl)Cc1cc([N+](=O)[O-])ccc1-2`, the GI50 [2] was 8.06 µM and the TGI [2] was > 100 µM.
`C=CCc1c2c(c(OC)c3ccoc13)C(=O)/C(=C/c1ccccc1OC)O2` was tested, and the GI50 [2] was 5.25 µM and the TGI [2] was > 100 µM.
For `COc1c(CCC[P+](c2ccccc2)(c2ccccc2)c2ccccc2)cc2c(c1OC)OCO2`, the GI50 [2] was 0.961 µM and the TGI [2] was 22.4 µM.
`CCCCOc1ccc(NC(N)=Nc2ccc(Cl)cc2)cc1` showed a TGI [1] of 19.5 µM and a TGI [2] of 18.3 µM.
`C[C@H](Nc1ncnc2nc[nH]c12)c1cc2cccc(Cl)c2c(=O)n1-c1ccccc1` was tested, and the GI50 [2] was 2.39 µM and the TGI [2] was > 100 µM.
For `O=C([O-])c1ccccc1Nc1ccccn1.O=C([O-])c1ccccc1Nc1ccccn1.[Ni+2]`, the GI50 [3] was > 100 µM, the TGI [3] was > 100 µM and the GI50 [4] was > 100 µM. The TGI [4] was > 100 µM, the GI50 [5] was 91.8 µM and the TGI [5] was > 100 µM. For the same molecule, the GI50 [6] was > 100 µM and the TGI [6] was > 100 µM.
In the case of `ClCCn1c(CCl)nc2ccc(Cl)cc21`, the GI50 [2] is reported as 1.58 µM and the TGI [2] is reported as 3.39 µM.
In the case of `COC(=O)[C@]12CC[C@@H](C)[C@H](C)[C@@H]1C1=CC[C@@H]3[C@@]4(C)C[C@@H](OC(C)=O)[C@H](O)[C@@](C)(COC(C)=O)[C@@H]4[C@H](O)C[C@@]3(C)[C@]1(C)CC2`, the GI50 [2] is reported as 1.86 µM and the TGI [2] is reported as 7.05 µM.
`COc1cccc(/C=C/C(=O)c2cccc(Nc3nc(Nc4ccccc4)nc(Nc4ccccc4)n3)c2)c1` was tested, and the GI50 [2] was 5.21 µM and the TGI [2] was > 67.2 µM.
`COC1(C(=O)N[C@@H](C)c2ccc(-n3cc(F)cn3)nc2)CCC(c2nc(C)cc(Nc3cc(C)[nH]n3)n2)CC1` (stereo not given in full) was tested, and the GI50 [2] was 3.66 µM and the TGI [2] was 32.7 µM.
With `Cc1occc1C(=S)Nc1ccc(Cl)c(COC(C)(C)C)c1` the TGI [1] was 34.4 µM and the TGI [2] was 30.6 µM.
For `CC/C=C\C=C/C(=O)N/C=C/CC1Cc2cccc(O)c2C(=O)O1` (stereo not given), the GI50 [2] was 25.3 µM and the TGI [2] was > 100 µM.
With `CN1CCN(CCc2cccc(C(=O)c3cnn(-c4ccc(F)cc4)c3N)c2)CC1` the GI50 [2] was > 25 µM and the TGI [2] was > 25 µM.
In the case of `COc1cc(C2c3cc4c(cc3OC(N3CCCC3)C2C)OCO4)cc(OC)c1OC` (stereo not given), the TGI [1] is reported as 0.418 µM and the TGI [2] is reported as > 62.5 µM.
`COc1ccc(C(=O)/C=C/c2ccc(/C=C/c3cc(OC)c(OC)c(OC)c3)cc2)cc1` was tested, and the GI50 [2] was 5.65 µM and the TGI [2] was > 100 µM.
Molecule `CC1SC(c2c(Cl)cccc2Cl)N(NC(=O)c2[nH]c3ccc(F)cc3c2-c2ccccc2)C1=O` (stereo not given) has a GI50 [2] of 1.98 µM and a TGI [2] of 4.46 µM.
For `COc1ccccc1NC(=O)C1=C(C)NC(C)=C(C(=O)Nc2ccccc2OC)C1c1ccccc1F`, the TGI [4] was > 100 µM, the TGI [5] was > 100 µM and the TGI [6] was > 100 µM. The TGI [7] was > 100 µM.
With `CC1(C)SC2C(NC(=O)C(N)c3ccccc3)C(=O)N2C1C(=O)O` (stereo not given) the TGI [2] was > 100 µM.
Molecule `CCN(Cc1ccc(F)c(F)c1)c1ccc(CO)c(Cl)c1` has a GI50 [2] of 12.3 µM and a TGI [2] of 27.4 µM.
`CC(C)NC[C@@H](C(=O)N1CCN(c2ncnc3c2[C@H](C)C[C@H]3O)CC1)c1ccc(Cl)cc1` was tested, and the GI50 [2] was 0.566 µM and 0.887 µM and the TGI [2] was > 100 µM.
`COc1ccc(N2C(C)=C(C#N)C34C(=O)N(c5ccccc5)C(=O)C3=C(O)C=CC24O)cc1` (stereo not given) gave a GI50 [2] of 17.1 µM and a TGI [2] of 62.5 µM.
With `COc1nc(NC2OCC(OC(C)=O)C(OC(C)=O)C2OC(C)=O)c(N=CC=Nc2c(NC3OCC(OC(C)=O)C(OC(C)=O)C3OC(C)=O)nc(OC)n(C)c2=O)c(=O)n1C` (stereo not given) the TGI [3] was > 100 µM, the TGI [4] was > 100 µM and the TGI [5] was > 100 µM. For the same molecule, the TGI [7] was > 100 µM.
In the case of `CN(CCCN)CCCNc1nc2ccccc2c2[nH]c3ccccc3c12`, the GI50 [2] is reported as 0.342 µM and the TGI [2] is reported as 1.28 µM.
Molecule `Nc1cc2cccc[n+]2c2cc(Cl)ccc12` has a GI50 [1] of 12.6 µM and a TGI [1] of 38.8 µM.
For `COC(=O)/C=C/C=C(c1ccccc1)c1ccccc1`, the GI50 [2] was 4.67 µM and the TGI [2] was > 100 µM.
For `CC1CCCCc2nc3c(c(=O)n21)CCCC3` (stereo not given), the TGI [3] was > 100 µM, the TGI [4] was > 100 µM and the TGI [5] was > 100 µM. For the same molecule, the TGI [7] was > 100 µM.
In the case of `CCCC[C@H](NC(=O)[C@H]1CCCN1C)C(=O)N(C)[C@H](C[C@@H](OC(C)=O)c1nc(C(=O)N[C@@H](Cc2ccccc2)C[C@H](C)C(=O)OCC)cs1)C(C)C`, the GI50 [2] is reported as 0.00957 µM and the TGI [2] is reported as > 33.3 µM.
`CC(C)(C)C[C@H]1NC(C(=O)NCC[C@H](O)CO)[C@H](c2cccc(Cl)c2)[C@@]12C(=O)Nc1cc(Cl)c(F)cc12` (stereo not given in full) showed a GI50 [2] of 14.9 µM and a TGI [2] of 34.7 µM.
`N#Cc1cnc2cc(OC[C@H](O)CO)c(NC(=O)CC3CSSC3)cc2c1Nc1ccc(OCc2cccc(F)c2)c(Cl)c1` gave a GI50 [2] of 0.162 µM and a TGI [2] of 0.451 µM.
In the case of `CC(C)(C)OC(=O)C#CC[C@H]1CCCC1/C=C/C(O)=C1/C(=O)NC(CCCNC(=O)OC(C)(C)C)C1=O` (stereo not given in full), the TGI [3] is reported as 67.9 µM, the TGI [4] is reported as > 100 µM and the TGI [6] is reported as 61.3 µM. It also gave a TGI [7] of 53.2 µM.
In the case of `COC(=O)CCC1CCc2c(OC)ccc(O)c2C1=O` (stereo not given), the TGI [3] is reported as > 100 µM, the TGI [4] is reported as > 100 µM and the TGI [5] is reported as > 100 µM.
In the case of `O=C(CC(=O)CC(O)(C(F)(F)F)C(F)(F)F)CC(O)(C(F)(F)F)C(F)(F)F`, the TGI [1] is reported as > 10 µM.
`COC(=O)[C@H](Cc1cn(C)cn1)NC(=O)[C@H](Cc1c[nH]c2ccccc12)NC(=O)Nc1cc(C(F)(F)F)cc(C(F)(F)F)c1` was tested, and the GI50 [2] was > 10 µM and the TGI [2] was > 10 µM.
`Cc1c(C(=O)/C=C/c2csc3ccccc23)[n+](=O)c2ccccc2n1[O-]` showed a GI50 [2] of 1.71 µM and a TGI [2] of 4.3 µM.
In the case of `CCCc1[nH]nc(CCC(=O)N(Cc2ccccc2)Cc2ccccc2)c1CC`, the TGI [3] is reported as > 100 µM, the TGI [4] is reported as > 100 µM and the TGI [6] is reported as > 100 µM. The TGI [7] was > 100 µM.
`O=C(c1ccccc1)C1N=NCC1c1ccc([N+](=O)[O-])cc1` (stereo not given) was tested, and the TGI [1] was > 100 µM and the TGI [2] was > 100 µM.
With `CCCN=Cc1cc(Cc2ccc(O)c(C=NCCC)c2)ccc1O` the TGI [1] was 10.1 µM and the TGI [2] was 5.89 µM.
In the case of `COc1ccc(-c2ccc(/C=N/n3c(COc4ccc(Cl)cc4Cl)n[nH]c3=S)o2)c([N+](=O)[O-])c1`, the GI50 [2] is reported as 19.4 µM and the TGI [2] is reported as 47.1 µM.
